Laboratory results published in PubChem BioAssay (NCI).
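Compound exposure: 48 hours, 5 concentrations, 96-well plates. GI50 is the concentration that inhibits growth by half. The concentration for full growth arrest is given as TGI.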

Legend:
Assay in all cases: DTP human tumour cell line panel, 48 h; in the data active = GI50 below about 0.43 µM; inactive = the rest
NCI-H522 lung = test system: NCI-H522 lung
MOLT-4 leukemia = test system: MOLT-4 leukemia
EKVX NSCLC = test system: EKVX NSCLC
SNB-19 CNS = test system: SNB-19 CNS
OVCAR-8 ovarian = test system: OVCAR-8 ovarian
CCRF-CEM leukemia = test system: CCRF-CEM leukemia
U251 CNS = test system: U251 CNS
OVCAR-4 ovarian = test system: OVCAR-4 ovarian
A549 NSCLC = test system: A549 NSCLC
UACC-62 melanoma = test system: UACC-62 melanoma
T-47D breast = test system: T-47D breast
PC-3 prostate = test system: PC-3 prostate
SW-620 colon = test system: SW-620 colon
COLO 205 colon = test system: COLO 205 colon
BT-549 breast = test system: BT-549 breast
A498 renal = test system: A498 renal
SNB-75 CNS = test system: SNB-75 CNS
HL-60(TB) leukemia = test system: HL-60(TB) leukemia
DU-145 prostate = test system: DU-145 prostate
RXF 393 renal = test system: RXF 393 renal
NCI-H226 lung = test system: NCI-H226 lung
SN12C renal = test system: SN12C renal
MCF7 breast = test system: MCF7 breast
HCC-2998 colon = test system: HCC-2998 colon
HOP-92 NSCLC = test system: HOP-92 NSCLC
UO-31 renal = test system: UO-31 renal
HT29 colon = test system: HT29 colon
KM12 colon = test system: KM12 colon
SK-MEL-2 melanoma = test system: SK-MEL-2 melanoma
NCI/ADR-RES ovarian = test system: NCI/ADR-RES ovarian
M14 melanoma = test system: M14 melanoma
HS 578T breast = test system: HS 578T breast
MDA-MB-435 = test system: MDA-MB-435
NCI-H460 lung = test system: NCI-H460 lung
HCT-116 colon = test system: HCT-116 colon
SF-295 CNS = test system: SF-295 CNS
SF-268 CNS = test system: SF-268 CNS
SK-MEL-5 melanoma = test system: SK-MEL-5 melanoma
786-0 renal = test system: 786-0 renal
OVCAR-3 ovarian = test system: OVCAR-3 ovarian
OVCAR-5 ovarian = test system: OVCAR-5 ovarian
HOP-62 NSCLC = test system: HOP-62 NSCLC
ACHN renal = test system: ACHN renal
IGROV1 ovarian = test system: IGROV1 ovarian
LOX IMVI melanoma = test system: LOX IMVI melanoma
NCI-H23 lung = test system: NCI-H23 lung
RPMI-8226 leukemia = test system: RPMI-8226 leukemia
MALME-3M melanoma = test system: MALME-3M melanoma
HCT-15 colon = test system: HCT-15 colon
K-562 leukemia = test system: K-562 leukemia
TK-10 renal = test system: TK-10 renal
SK-MEL-28 melanoma = test system: SK-MEL-28 melanoma
SK-OV-3 ovarian = test system: SK-OV-3 ovarian
MDA-MB-231 breast = test system: MDA-MB-231 breast
SF-539 CNS = test system: SF-539 CNS
CAKI-1 renal = test system: CAKI-1 renal
SR leukemia = test system: SR leukemia
UACC-257 melanoma = test system: UACC-257 melanoma

COc1ccc2c(c1)OC1=C(C(=O)OC1)C2c1cc(OC)c(OC)c(OC)c1 (stereo unspecified)
1.14 µM: TGI (OVCAR-3 ovarian)
0.735 µM: TGI (RXF 393 renal)
inactive: GI50 (MOLT-4 leukemia) 0.542 µM | GI50 (SNB-19 CNS) 0.58 µM | GI50 (OVCAR-8 ovarian) 0.709 µM | GI50 (U251 CNS) 0.456 µM | GI50 (OVCAR-4 ovarian) 1.42 µM | GI50 (A549 NSCLC) 0.61 µM | GI50 (UACC-62 melanoma) 0.55 µM | GI50 (T-47D breast) 0.489 µM | GI50 (BT-549 breast) 1.29 µM | GI50 (DU-145 prostate) 0.529 µM | GI50 (NCI-H226 lung) 0.441 µM | GI50 (SN12C renal) 0.806 µM | GI50 (HCC-2998 colon) 1.27 µM | GI50 (HOP-92 NSCLC) 3.99 µM | GI50 (UO-31 renal) 0.961 µM | GI50 (SK-MEL-2 melanoma) 0.518 µM | GI50 (M14 melanoma) 0.471 µM | GI50 (HCT-116 colon) 0.535 µM | GI50 (SF-268 CNS) 1.91 µM | GI50 (786-0 renal) 0.632 µM | GI50 (OVCAR-5 ovarian) 4.3 µM | GI50 (HOP-62 NSCLC) 0.545 µM | GI50 (ACHN renal) 1.27 µM | GI50 (IGROV1 ovarian) 3.18 µM | GI50 (LOX IMVI melanoma) 0.608 µM | GI50 (NCI-H23 lung) 0.609 µM | GI50 (RPMI-8226 leukemia) 0.514 µM | GI50 (MALME-3M melanoma) 0.468 µM | GI50 (HCT-15 colon) 0.499 µM | GI50 (TK-10 renal) > 67.7 µM | GI50 (SK-MEL-28 melanoma) 0.667 µM | GI50 (MDA-MB-231 breast) 1.3 µM
0.358 µM: TGI (MDA-MB-435)
> 49.5 µM: TGI (SK-OV-3 ovarian)
> 100 µM: TGI (EKVX NSCLC) | TGI (SNB-19 CNS) | TGI (OVCAR-8 ovarian) | TGI (CCRF-CEM leukemia) | TGI (U251 CNS) | TGI (OVCAR-4 ovarian) | TGI (A549 NSCLC) | TGI (UACC-62 melanoma) | TGI (T-47D breast) | TGI (PC-3 prostate) | TGI (SW-620 colon) | TGI (BT-549 breast) | TGI (SNB-75 CNS) | TGI (SN12C renal) | TGI (MCF7 breast) | TGI (HCC-2998 colon) | TGI (HOP-92 NSCLC) | TGI (UO-31 renal) | TGI (HT29 colon) | TGI (SK-MEL-2 melanoma) | TGI (NCI/ADR-RES ovarian) | TGI (M14 melanoma) | TGI (HS 578T breast) | TGI (HCT-116 colon) | TGI (SF-295 CNS) | TGI (SF-268 CNS) | TGI (786-0 renal) | TGI (OVCAR-5 ovarian) | TGI (HOP-62 NSCLC) | TGI (ACHN renal) | TGI (IGROV1 ovarian) | TGI (LOX IMVI melanoma) | TGI (NCI-H23 lung) | TGI (RPMI-8226 leukemia) | TGI (HCT-15 colon) | TGI (K-562 leukemia) | TGI (TK-10 renal) | TGI (SK-MEL-28 melanoma) | TGI (MDA-MB-231 breast)
2.02 µM: TGI (NCI-H522 lung)
61.2 µM: TGI (SK-MEL-5 melanoma)
87.6 µM: TGI (MALME-3M melanoma)
5.99 µM: TGI (NCI-H226 lung)
> 47.2 µM: TGI (MOLT-4 leukemia)
active: GI50 (NCI-H522 lung) 0.273 µM | GI50 (CCRF-CEM leukemia) 0.315 µM | GI50 (PC-3 prostate) 0.391 µM | GI50 (SW-620 colon) 0.334 µM | GI50 (COLO 205 colon) 0.312 µM | GI50 (A498 renal) 0.281 µM | GI50 (SNB-75 CNS) 0.295 µM | GI50 (HL-60(TB) leukemia) 0.256 µM | GI50 (RXF 393 renal) 0.231 µM | GI50 (MCF7 breast) 0.35 µM | GI50 (HT29 colon) 0.345 µM | GI50 (KM12 colon) 0.396 µM | GI50 (NCI/ADR-RES ovarian) 0.325 µM | GI50 (HS 578T breast) 0.324 µM | GI50 (MDA-MB-435) 0.104 µM | GI50 (NCI-H460 lung) 0.359 µM | GI50 (SF-295 CNS) 0.279 µM | GI50 (SK-MEL-5 melanoma) 0.363 µM | GI50 (OVCAR-3 ovarian) 0.313 µM | GI50 (K-562 leukemia) 0.199 µM | GI50 (SK-OV-3 ovarian) 0.392 µM
0.974 µM: TGI (COLO 205 colon)
0.673 µM: TGI (HL-60(TB) leukemia)
> 81.2 µM: TGI (NCI-H460 lung)
15.1 µM: TGI (A498 renal)
> 42.4 µM: TGI (DU-145 prostate)
> 89.6 µM: TGI (KM12 colon)

O=S(=O)(c1ccc(N=C2NN=C(c3c[nH]c4ccccc34)CS2)cc1)N1CCOCC1
58.8 µM: TGI (CCRF-CEM leukemia)
11.3 µM: TGI (BT-549 breast)
78.6 µM: TGI (T-47D breast)
40.9 µM: TGI (MOLT-4 leukemia)
76.9 µM: TGI (RPMI-8226 leukemia)
42.3 µM: TGI (786-0 renal)
inactive: GI50 (NCI-H522 lung) > 100 µM | GI50 (MOLT-4 leukemia) 3.93 µM | GI50 (EKVX NSCLC) 5.76 µM | GI50 (SNB-19 CNS) 45.6 µM | GI50 (OVCAR-8 ovarian) 9.61 µM | GI50 (CCRF-CEM leukemia) 4.69 µM | GI50 (U251 CNS) 8.48 µM | GI50 (OVCAR-4 ovarian) 15.6 µM | GI50 (A549 NSCLC) 8.68 µM | GI50 (UACC-62 melanoma) 26.8 µM | GI50 (T-47D breast) 3.56 µM | GI50 (PC-3 prostate) 10.3 µM | GI50 (SF-539 CNS) 27.7 µM | GI50 (SW-620 colon) 77.2 µM | GI50 (COLO 205 colon) 14.7 µM | GI50 (BT-549 breast) 2.86 µM | GI50 (A498 renal) 15.7 µM | GI50 (SNB-75 CNS) 21.6 µM | GI50 (HL-60(TB) leukemia) 2.25 µM | GI50 (DU-145 prostate) > 100 µM | GI50 (NCI-H226 lung) 7.74 µM | GI50 (CAKI-1 renal) 78.1 µM | GI50 (SN12C renal) 79.4 µM | GI50 (MCF7 breast) 4.31 µM | GI50 (HCC-2998 colon) 24.6 µM | GI50 (SR leukemia) 4.81 µM | GI50 (HOP-92 NSCLC) 3.7 µM | GI50 (UO-31 renal) 19.1 µM | GI50 (HT29 colon) 4.48 µM | GI50 (KM12 colon) 7.13 µM | GI50 (SK-MEL-2 melanoma) 6.22 µM | GI50 (NCI/ADR-RES ovarian) 20.6 µM | GI50 (HS 578T breast) 31.4 µM | GI50 (MDA-MB-435) 8.85 µM | GI50 (NCI-H460 lung) 5.04 µM | GI50 (HCT-116 colon) 7.35 µM | GI50 (SF-268 CNS) 73.7 µM | GI50 (SK-MEL-5 melanoma) 2.51 µM | GI50 (786-0 renal) 2.55 µM | GI50 (OVCAR-3 ovarian) 18.8 µM | GI50 (OVCAR-5 ovarian) 49.1 µM | GI50 (ACHN renal) 88.6 µM | GI50 (IGROV1 ovarian) > 100 µM | GI50 (LOX IMVI melanoma) 11.2 µM | GI50 (NCI-H23 lung) 18.3 µM | GI50 (UACC-257 melanoma) 9.54 µM | GI50 (RPMI-8226 leukemia) 3.72 µM | GI50 (MALME-3M melanoma) 34.8 µM | GI50 (HCT-15 colon) 8.06 µM | GI50 (K-562 leukemia) 2.65 µM | GI50 (TK-10 renal) 26.3 µM | GI50 (SK-MEL-28 melanoma) 37.7 µM | GI50 (SK-OV-3 ovarian) > 100 µM | GI50 (MDA-MB-231 breast) 45.3 µM
> 100 µM: TGI (NCI-H522 lung) | TGI (EKVX NSCLC) | TGI (SNB-19 CNS) | TGI (OVCAR-8 ovarian) | TGI (U251 CNS) | TGI (OVCAR-4 ovarian) | TGI (A549 NSCLC) | TGI (UACC-62 melanoma) | TGI (PC-3 prostate) | TGI (SF-539 CNS) | TGI (SW-620 colon) | TGI (COLO 205 colon) | TGI (A498 renal) | TGI (SNB-75 CNS) | TGI (HL-60(TB) leukemia) | TGI (DU-145 prostate) | TGI (NCI-H226 lung) | TGI (CAKI-1 renal) | TGI (SN12C renal) | TGI (MCF7 breast) | TGI (HCC-2998 colon) | TGI (SR leukemia) | TGI (HOP-92 NSCLC) | TGI (UO-31 renal) | TGI (HT29 colon) | TGI (KM12 colon) | TGI (SK-MEL-2 melanoma) | TGI (NCI/ADR-RES ovarian) | TGI (M14 melanoma) | TGI (HS 578T breast) | TGI (MDA-MB-435) | TGI (NCI-H460 lung) | TGI (HCT-116 colon) | TGI (SF-268 CNS) | TGI (OVCAR-3 ovarian) | TGI (OVCAR-5 ovarian) | TGI (ACHN renal) | TGI (IGROV1 ovarian) | TGI (LOX IMVI melanoma) | TGI (NCI-H23 lung) | TGI (UACC-257 melanoma) | TGI (MALME-3M melanoma) | TGI (HCT-15 colon) | TGI (K-562 leukemia) | TGI (TK-10 renal) | TGI (SK-MEL-28 melanoma) | TGI (SK-OV-3 ovarian) | TGI (MDA-MB-231 breast)
16.4 µM: TGI (SK-MEL-5 melanoma)
